As a reminder, the MIC is the least concentration at which growth counts as inhibited. For orientation: ED50 means the midpoint of the dose-response relation.

MIC and ED50 data for four molecules are collected here from patent publication US4362725A, “Cephalosporins” (Dr. Karl Thomae Gesellschaft mit beschrankter Haftung, priority 1980, dated 1982).

Values after ≈ are worked out from the molar mass of the structure shown.

Assay [1] deals with Staphylococcus aureus SG 511. Nature of the assay: In vitro serial dilution test in the microtiter system (MIC), S. aureus. Type of assay: cell-based. The note with it: SG511, 18 to 20 h at 37° C. As to the method: (§1) The tests were performed using the serial dilution test in the microtiter system. The effect of the test compound on bacteristasis was examined in a liquid medium at the following concentrations: >64, 64 32, 16, 8, 4, 2, 1, 0.5, 0.25, 0.125, 0.06, 0.03 and 0.015 μgm/ml. The nutrient medium consisted of 10 gm of peptone, 8 gm of meat extract oxoid, 3 gm of sodium chloride, and 2 gm of sec. sodium phosphate diluted with distilled water to […] (pH 7.2-7.4). Only in the test against streptococci 1% of glucose was added. The age of the primary cultures was approximately 20 hours. The standardization of the bacteria suspension was effected using a photometer according to the method of Eppendorf (test tube .phi.-mm, filter 546 nm), using for comparison a barium sulfate suspension formed by the addition of 3.0 ml of 1% barium chloride solution to 97 ml of 1% sulfuric acid. After standardization, the test microorganisms were further diluted to a concentration of 1:1500, using a sodium chloride solution.
(§2) 16 mgm of the particular test compound were put into a 10 ml measuring flask, and the flask was subsequently filled to the mark with solvent. The further dilution series was standardized with distilled water or the appropriate solvent.
(§3) The cavities of the microtiter plates were filled with 0.2 ml of nutrient medium. 0.01 ml of the appropriate test compound solution was then added, followed by inoculation with 0.01 ml (1 drop) of the standardized bacteria suspension. The bacteria were incubated at 37° C. for 18 to 20 hours. Control tests using only the solvent were carried out simultaneously.
(§4) The readings were made macroscopically to determine the minimum inhibitory concentration (the lowest still bacteriostatically effective concentration).
(§5) The following test organisms were used:
(§6) Staphylococcus aureus SG 511, Escherichia coli ATCC11 775, Pseudomonas aeruginosa hamburgensis and Pseudomonas aeruginosa BC 19, Serratia marcescens ATCC 13 880, Klebsiella pneumoniae ATCC 10 031 and BC 6, Proteus mirabilis BC 17, Proteus rettgeri BC 7, Enterobacter Cloaceae ATCC 13047 and E. coli R+TEM (β-lactamase carrier).

Assay [2] relates to Escherichia coli ATCC11 775. As to the kind of experiment: In vitro serial dilution test in the microtiter system (MIC), E. coli. Type of assay: cell-based. The note with it: 18 to 20 h at 37° C., read-out: MIC E. coli ATCC 11775. How it is done: as §1, §2, §3, §4, §5, §6
Assay [3] has as its system Pseudomonas aeruginosa hamburgensis. Nature of the assay: In vitro serial dilution test in the microtiter system (MIC), Pseudomonas Hbg. The class given is cell-based. The settings on record: 18 to 20 h at 37° C., read-out: MIC Pseud. aerug. Hbg. How it is done:
as §1, §2, §3, §4, §5, §6

The test system of assay [4] is Pseudomonas aeruginosa BC 19. As to the kind of experiment: In vitro serial dilution test in the microtiter system (MIC), Pseudomonas BC 19. The class given is cell-based. The note with it: BC19, 18 to 20 h at 37° C., read-out: MIC Pseud. aerug. BC 19. How it is done: as §1, §2, §3, §4, §5, §6
Assay [5] has as its system Klebsiella pneumoniae ATCC 10 031. Nature of the assay: In vitro serial dilution test in the microtiter system (MIC), Klebsiella ATCC 10031. Type of assay: cell-based. The note with it: 18 to 20 h at 37° C., read-out: MIC Klebs. pneum. ATCC 10031. How it is done: as §1, §2, §3, §4, §5, §6
Assay [6] concerns Klebsiella pneumoniae BC 6. Nature of the assay: In vitro serial dilution test in the microtiter system (MIC), Klebsiella BC 6. Type of assay: cell-based. The note with it: BC6, 18 to 20 h at 37° C., read-out: MIC Klebs. pneum. BC 6. How it is done:
as §1, §2, §3, §4, §5, §6

Assay [7] concerns Proteus mirabilis BC 17. Nature of the assay: In vitro serial dilution test in the microtiter system (MIC), Proteus mirabilis. Type of assay: cell-based. The note with it: BC17, 18 to 20 h at 37° C., read-out: MIC Prot. mir. BC 17. As to the method:
as §1, §2, §3, §4, §5, §6

Assay [8] has as its system Proteus rettgeri BC 7. As to the kind of experiment: In vitro serial dilution test in the microtiter system (MIC), Proteus rettgeri. The note with it: Providencia rettgeri, BC7; 18 to 20 h at 37° C.; read-out: MIC Prot. rettg. BC 7. The class given is cell-based. As to the method: as §1, §2, §3, §4, §5, §6
In assay [9] the test system is Enterobacter Cloaceae ATCC 13047. As to the kind of experiment: In vitro serial dilution test in the microtiter system (MIC), Enterobacter. The class given is cell-based. The note with it: ATCC13047, 18 to 20 h at 37° C., read-out: MIC Eb. cloaceae. How it is done:
as §1, §2, §3, §4, §5, §6

Assay [10] concerns E. coli R+TEM (β-lactamase carrier). As to the kind of experiment: In vitro serial dilution test in the microtiter system (MIC), E. coli R+TEM. Type of assay: cell-based. The note with it: Escherichia coli, read-out: MIC E. coli R + TEM. As to the method: as §1, §2, §3, §4, §5, §6
Assay [11] deals with Serratia marcescens ATCC 13 880. Nature of the assay: In vitro serial dilution test in the microtiter system (MIC), Serratia. The class given is cell-based. The settings on record: 18 to 20 h at 37° C., read-out: MIC Ser. marcesc. ATCC 13880. How it is done:
as §1, §2, §3, §4, §5, §6

Assay [12] has as its system E. coli ATCC 11 775. Nature of the assay: In vivo activity in mice, experimental E. coli infection. Details: species or system mice (female, NMRI strain). The note with it: Escherichia coli, ATCC11, sc, 168 h; s.c., once 1 hour after i.p. E. coli infection; 7 days observation; read-out: ED50 (dose at which 50% of the animals survive). As to the method: (§7) Several of the compounds of this invention were tested in vivo against experimental infections in mice. E. coli ATCC 11 775 and Pseudomonas aeruginosa BC 19 were used as the pathogenic bacteria. An interaperitoneal infection was induced with 0.2 ml of a bacterial suspension (containing 5% of mucin). This corresponds to approximately 1.4×10^6 E. coli germs or to 1.3×10^6 pseudomonas germs per mouse. Female mice of the NMRI strain were divided up into groups of 10 animals of which 2 groups remained untreated while the remaining groups were subcutaneously administered various doses of the particular cephalosporins according to the invention for the purpose of determining the ED50 (dose at which 50% of the animals survive). In the case of the E. coli infection, the treatment was applied once (1 hour after infection) while the pseudomonas infection was treated 3 times (1, 3 and 5 hours after infection).
(§8) In both cases, the observation period was 7 days. The results of these tests, carried out with typical representatives of the cephalosporins according to the invention, are shown in Table 3 below.

The subject of assay [13] is Pseudomonas aeruginosa BC 19. As to the kind of experiment: In vivo activity in mice, experimental Pseudomonas infection. The settings on record: BC19, sc, 168 h, per dose, s.c., 3 times (1, 3 and 5 hours after i.p. Pseudomonas infection), 7 days observation, read-out: ED50 (dose at which 50% of the animals survive). Further details: species or system mice (female, NMRI strain). As to the method: as §7, §8

`CO/N=C(\C(=O)N[C@@H]1C(=O)N2C(C(=O)O)=C(COC(N)=O)CS[C@H]12)c1ccco1` [Cefuroxim, reference compound]: the MIC was 1 µg/mL (≈ 2.36 µM) in assay [1]; 8 µg/mL (≈ 18.9 µM) in [2]; > 100 µg/mL in [3]; > 100 µg/mL in assay [4]; 2 µg/mL (≈ 4.71 µM) in assay [5]; 4 µg/mL (≈ 9.43 µM) in assay [6]. The MIC in assay [7] was 0.5 µg/mL (≈ 1.18 µM); in assay [8], 2 µg/mL (≈ 4.71 µM); in assay [9], 32 µg/mL (≈ 75.4 µM); in assay [10] it was 4 µg/mL; in [11] it was 8 µg/mL (≈ 18.9 µM). The ED50 in [12] was > 100 mg/kg.

Take `Cc1nnc(SCC2=C(C(=O)O)N3C(=O)[C@@H](NC(=O)Cn4cnnn4)[C@H]3SC2)s1` [Cephazolin, reference compound]: the MIC in assay [1] was 0.06 µg/mL (≈ 0.132 µM); in [2] it was 4 µg/mL (≈ 8.8 µM); in assay [3], > 100 µg/mL; in [4], > 100 µg/mL; in assay [5], 1 µg/mL (≈ 2.2 µM); in assay [6], 2 µg/mL (≈ 4.4 µM). The MIC in assay [7] is 4 µg/mL (≈ 8.8 µM); in assay [8], > 100 µg/mL; in [9] it was > 100 µg/mL; in assay [10] it was 4 µg/mL; in [11], > 100 µg/mL.

On to `NS(=O)(=O)c1ccc(Nc2ncc(NC(=O)NC(C(=O)N[C@@H]3C(=O)N4C(C(=O)O)=C(CSc5nnnn5CC(=O)O)CS[C@H]34)c3ccc(O)cc3)c(O)n2)cc1` (some centres unmarked) [Compound 5], for which the MIC in assay [1] was 4 µg/mL (≈ 4.83 µM); in assay [2], 0.5 µg/mL (≈ 0.603 µM); in assay [3] it was 8 µg/mL (≈ 9.65 µM); in assay [4], 8 µg/mL (≈ 9.65 µM); in assay [5], 0.5 µg/mL (≈ 0.603 µM); in [6], 0.5 µg/mL (≈ 0.603 µM). In addition, the MIC in [7] was 0.12 µg/mL (≈ 0.145 µM); in assay [8], 0.25 µg/mL (≈ 0.302 µM); in assay [9] it was 2 µg/mL (≈ 2.41 µM); in assay [10] it was 32 µg/mL; in assay [11], 0.5 µg/mL (≈ 0.603 µM).

Turning to `NS(=O)(=O)c1ccc(Nc2ncc(NC(=O)NC(C(=O)N[C@@H]3C(=O)N4C(C(=O)O)=C(CSc5nnnn5CCO)CS[C@H]34)c3ccc(O)cc3)c(O)n2)cc1` (some centres unmarked) [Compound 7], the MIC came out at 1 µg/mL (≈ 1.23 µM) in assay [1]; 0.03 µg/mL (≈ 0.0368 µM) in assay [2]; 4 µg/mL (≈ 4.91 µM) in [3]; 4 µg/mL (≈ 4.91 µM) in assay [4]; 0.12 µg/mL (≈ 0.147 µM) in [5]; 0.12 µg/mL (≈ 0.147 µM) in assay [6]. Further, the MIC in [7] stood at 0.06 µg/mL (≈ 0.0736 µM); in assay [8], 0.25 µg/mL (≈ 0.307 µM); in assay [9], 0.25 µg/mL (≈ 0.307 µM); in assay [10], 4 µg/mL; in assay [11], 0.12 µg/mL (≈ 0.147 µM). Besides, the ED50 in assay [12] is ~0.3 mg/kg; in [13], 6.3 mg/kg.
